Source: article PMC11285769, “A pan-respiratory antiviral chemotype targeting a transient host multi-protein complex” (Open Biology, 2024)
Values joined by “and” are separate entries in the source; they are usually repeats but may differ in a detail not shown here. Equal entries are not always repeated.

How the values were obtained:
FLUV A/WSN/33 = format: cell-based, influenza A/WSN/33
[1] = test system: SARS-CoV-2 Omicron variant (lineage B.A.1); format: cell-based
[2] = test system: SARS-CoV-2 gamma variant, lineage P.1; format: cell-based
[3] = test system: SARS-CoV-2 delta variant (lineage B.1.617.2); format: cell-based

SMILES	activity against FLUV after 7 passages with compound (FLUV A/WSN/33)	efficacy against SARS-CoV-2 Omicron [1]	viral load eliminated compared to vehicle [2] [%]	efficacy against SARS-CoV-2 delta variant [3]	percentage reduction in infection (FLUV A/WSN/33)
CCOC(=O)C1=C[C@@H](OC(CC)CC)[C@H](NC(C)=O)[C@@H](N)C1 [Oseltamivir, reference compound]	lost activity by passage 7				
COc1c(CNC(=O)c2cc(C3CC3)nn2C)cccc1OC(F)(F)F [PAV-431]		significant efficacy	≥ 90	clear trend	
COc1cccc(CNC(=O)c2cc(C3CC3)nn2C)c1OC [PAV-835]	retained the same activity against FLUV as it did against a naive strain				98.9 percentage and 91.9 percentage
